ChEMBL document CHEMBL1201862, “PubChem BioAssay data set” (2004)
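A five-concentration, 48-hour dose response in 96-well plates underlies each endpoint, interpolated linearly between surrounding concentrations. The concentration for 50% growth inhibition is given as GI50.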 Calls of active or inactive are those of the source. No stated cut-off is given here; in the data, active = GI50 up to about 1.1 µM and inactive = higher.

How the values were obtained:
Experiment in all cases: DTP human tumour cell line panel, 48 h
OVCAR-8 = system: OVCAR-8
M14 = system: M14
K562 = system: K562
TK-10 = system: TK-10
SNB-78 = system: SNB-78
OVCAR-5 = system: OVCAR-5
NCI-H226 = system: NCI-H226
DMS-114 = system: DMS-114
COLO 205 = system: COLO 205
A549 = system: A549
HT-29 = system: HT-29
SNB-19 = system: SNB-19
NCI-H522 = system: NCI-H522
RXF 393 = system: RXF 393
SK-MEL-28 = system: SK-MEL-28
KM12 = system: KM12
RXF 631 = system: RXF 631
MOLT-4 = system: MOLT-4
786-0 = system: 786-0
Malme-3M = system: Malme-3M
SW-620 = system: SW-620
SK-MEL-5 = system: SK-MEL-5
DMS-273 = system: DMS-273
UACC-62 = system: UACC-62
NCI-H460 = system: NCI-H460
SF-539 = system: SF-539
HCT-15 = system: HCT-15
U-251 = system: U-251
UO-31 = system: UO-31
IGROV-1 = system: IGROV-1
XF498 = system: XF498
SK-MEL-2 = system: SK-MEL-2
SR = system: SR
HOP-92 = system: HOP-92
OVCAR-4 = system: OVCAR-4
UACC-257 = system: UACC-257
OVCAR-3 = system: OVCAR-3
CAKI-1 = system: CAKI-1
NCI-H23 = system: NCI-H23
SN12C = system: SN12C
M19-MEL = system: M19-MEL
EKVX = system: EKVX
SNB-75 = system: SNB-75
SK-OV-3 = system: SK-OV-3
RPMI-8226 = system: RPMI-8226
DLD-1 = system: DLD-1
HCT-116 = system: HCT-116
ACHN = system: ACHN
KM-20L2 = system: KM-20L2
LXFL 529 = system: LXFL 529
SF-295 = system: SF-295
CCRF-CEM = system: CCRF-CEM
HCC 2998 = system: HCC 2998
LOX IMVI = system: LOX IMVI
SF-268 = system: SF-268
HOP-62 = system: HOP-62
HL-60 = system: HL-60
A498 = system: A498

CC(=O)OC1(Sc2ccccc2)CC2[C@H]3COC(C)(C)O[C@H]3CC[C@@]2(C)CC1=O (some centres undefined)
GI50 (OVCAR-8): 74.8 µM (inactive)
GI50 (M14): 34.6 µM (inactive)
GI50 (K562): 30.1 µM (inactive)
GI50 (TK-10): > 100 µM (inactive)
GI50 (SNB-78): > 100 µM (inactive)
GI50 (OVCAR-5): > 100 µM (inactive)
GI50 (NCI-H226): 20.2 µM (inactive)
GI50 (DMS-114): 27 µM (inactive)
GI50 (COLO 205): 26.9 µM (inactive)
GI50 (A549): 43.2 µM (inactive)
GI50 (HT-29): 88.5 µM (inactive)
GI50 (SNB-19): 71.9 µM (inactive)
GI50 (NCI-H522): 32.3 µM (inactive)
GI50 (RXF 393): 47.2 µM (inactive)
GI50 (SK-MEL-28): > 100 µM (inactive)
GI50 (KM12): 43.5 µM (inactive)
GI50 (RXF 631): 14.4 µM (inactive)
GI50 (MOLT-4): 9.95 µM (inactive)
GI50 (786-0): 33.7 µM (inactive)
GI50 (Malme-3M): 99.3 µM (inactive)
GI50 (SW-620): 52.4 µM (inactive)
GI50 (SK-MEL-5): 21.3 µM (inactive)
GI50 (DMS-273): 39.6 µM (inactive)
GI50 (UACC-62): 30.1 µM (inactive)
GI50 (NCI-H460): 64.1 µM (inactive)
GI50 (SF-539): 26.1 µM (inactive)
GI50 (HCT-15): 34.9 µM
GI50 (U-251): > 10 µM (inactive)
GI50 (UO-31): 19 µM (inactive)
GI50 (IGROV-1): 21.3 µM (inactive)
GI50 (XF498): 19.2 µM (inactive)
GI50 (SK-MEL-2): 81.8 µM (inactive)
GI50 (SR): 10 µM (inactive)
GI50 (HOP-92): 45.2 µM (inactive)
GI50 (OVCAR-4): 71.6 µM (inactive)
GI50 (UACC-257): 49.9 µM (inactive)
GI50 (OVCAR-3): 37.2 µM (inactive)
GI50 (CAKI-1): 48.8 µM (inactive)
GI50 (NCI-H23): 21.4 µM (inactive)
GI50 (SN12C): 23.4 µM (inactive)
GI50 (M19-MEL): 50.9 µM (inactive)
GI50 (EKVX): 57.7 µM (inactive)
GI50 (SNB-75): 23.2 µM (inactive)
GI50 (SK-OV-3): 44.2 µM (inactive)
GI50 (RPMI-8226): 21.1 µM (inactive)
GI50 (DLD-1): 65.2 µM (inactive)
GI50 (HCT-116): 65.3 µM (inactive)
GI50 (ACHN): 41.5 µM (inactive)
GI50 (KM-20L2): 37.5 µM (inactive)
GI50 (LXFL 529): 34.2 µM (inactive)
GI50 (SF-295): 55.8 µM (inactive)

COc1ccccc1/C=C1\N=C(C)OC1=O
GI50 (OVCAR-8): > 100 µM (inactive)
GI50 (M14): > 100 µM (inactive)
GI50 (K562): > 100 µM (inactive)
GI50 (TK-10): > 100 µM (inactive)
GI50 (SNB-78): > 100 µM (inactive)
GI50 (OVCAR-5): > 100 µM (inactive)
GI50 (COLO 205): > 100 µM (inactive)
GI50 (HT-29): > 100 µM (inactive)
GI50 (SNB-19): > 100 µM (inactive)
GI50 (NCI-H522): > 100 µM (inactive)
GI50 (RXF 393): > 100 µM (inactive)
GI50 (SK-MEL-28): > 100 µM (inactive)
GI50 (KM12): > 100 µM (inactive)
GI50 (RXF 631): > 100 µM (inactive)
GI50 (MOLT-4): > 100 µM (inactive)
GI50 (Malme-3M): > 100 µM (inactive)
GI50 (SW-620): > 100 µM (inactive)
GI50 (SK-MEL-5): > 100 µM (inactive)
GI50 (UACC-62): > 100 µM (inactive)
GI50 (HCT-15): > 100 µM
GI50 (U-251): > 100 µM (inactive)
GI50 (UO-31): > 100 µM (inactive)
GI50 (IGROV-1): > 100 µM (inactive)
GI50 (XF498): > 100 µM (inactive)
GI50 (SK-MEL-2): > 100 µM (inactive)
GI50 (SR): > 100 µM (inactive)
GI50 (HOP-92): > 100 µM (inactive)
GI50 (OVCAR-4): > 100 µM (inactive)
GI50 (OVCAR-3): > 100 µM (inactive)
GI50 (CAKI-1): > 100 µM (inactive)
GI50 (NCI-H23): > 100 µM (inactive)
GI50 (SN12C): > 100 µM (inactive)
GI50 (M19-MEL): > 100 µM (inactive)
GI50 (SK-OV-3): > 100 µM (inactive)
GI50 (CCRF-CEM): 56 µM (inactive)
GI50 (DLD-1): > 100 µM (inactive)
GI50 (HCC 2998): > 100 µM (inactive)
GI50 (KM-20L2): > 100 µM (inactive)
GI50 (SF-295): > 100 µM (inactive)

OCCCOC(c1ccccc1)(c1ccccc1)c1ccccc1
GI50 (LOX IMVI): 35.6 µM (inactive)
GI50 (SF-268): > 100 µM (inactive)
GI50 (OVCAR-8): > 100 µM (inactive)
GI50 (M14): > 100 µM (inactive)
GI50 (K562): > 100 µM (inactive)
GI50 (TK-10): > 100 µM (inactive)
GI50 (SNB-78): 38.9 µM (inactive)
GI50 (OVCAR-5): > 100 µM (inactive)
GI50 (DMS-114): > 100 µM (inactive)
GI50 (COLO 205): > 100 µM (inactive)
GI50 (A549): > 100 µM (inactive)
GI50 (HT-29): 24.3 µM (inactive)
GI50 (NCI-H522): > 100 µM (inactive)
GI50 (RXF 393): < 0.01 µM (active)
GI50 (SK-MEL-28): > 100 µM (inactive)
GI50 (KM12): > 100 µM (inactive)
GI50 (RXF 631): > 100 µM (inactive)
GI50 (HOP-62): 39.7 µM (inactive)
GI50 (MOLT-4): 93.3 µM (inactive)
GI50 (786-0): > 100 µM (inactive)
GI50 (Malme-3M): > 100 µM (inactive)
GI50 (SW-620): > 100 µM (inactive)
GI50 (SK-MEL-5): > 100 µM (inactive)
GI50 (DMS-273): > 100 µM (inactive)
GI50 (UACC-62): 88.5 µM (inactive)
GI50 (NCI-H460): > 100 µM (inactive)
GI50 (SF-539): > 100 µM (inactive)
GI50 (HCT-15): > 100 µM
GI50 (U-251): 51.5 µM (inactive)
GI50 (UO-31): 47 µM (inactive)
GI50 (IGROV-1): > 100 µM (inactive)
GI50 (XF498): > 100 µM (inactive)
GI50 (SR): > 100 µM (inactive)
GI50 (HOP-92): 20.6 µM (inactive)
GI50 (OVCAR-4): > 100 µM (inactive)
GI50 (UACC-257): > 100 µM (inactive)
GI50 (OVCAR-3): > 100 µM (inactive)
GI50 (CAKI-1): > 100 µM (inactive)
GI50 (NCI-H23): 75.7 µM (inactive)
GI50 (SN12C): > 100 µM (inactive)
GI50 (M19-MEL): > 100 µM (inactive)
GI50 (SNB-75): 20.1 µM (inactive)
GI50 (SK-OV-3): > 100 µM (inactive)
GI50 (CCRF-CEM): > 100 µM (inactive)
GI50 (RPMI-8226): > 100 µM (inactive)
GI50 (DLD-1): 60.1 µM (inactive)
GI50 (HCC 2998): > 100 µM (inactive)
GI50 (HCT-116): 50.7 µM (inactive)
GI50 (ACHN): > 100 µM (inactive)
GI50 (KM-20L2): > 100 µM (inactive)
GI50 (LXFL 529): > 100 µM (inactive)
GI50 (SF-295): 82.6 µM (inactive)
GI50 (HL-60): > 100 µM (inactive)

COc1ccc(OCC(=O)O)c(C(=O)CCC(=O)O)c1
GI50 (LOX IMVI): > 100 µM (inactive)
GI50 (SF-268): > 100 µM (inactive)
GI50 (OVCAR-8): > 100 µM (inactive)
GI50 (M14): > 10 µM (inactive)
GI50 (K562): > 100 µM (inactive)
GI50 (TK-10): > 100 µM (inactive)
GI50 (SNB-78): > 100 µM (inactive)
GI50 (OVCAR-5): > 100 µM (inactive)
GI50 (NCI-H226): 83.8 µM (inactive)
GI50 (DMS-114): > 100 µM (inactive)
GI50 (A498): > 100 µM (inactive)
GI50 (COLO 205): > 100 µM (inactive)
GI50 (A549): > 100 µM (inactive)
GI50 (HT-29): > 100 µM (inactive)
GI50 (SNB-19): > 100 µM (inactive)
GI50 (NCI-H522): > 100 µM (inactive)
GI50 (RXF 393): > 100 µM (inactive)
GI50 (SK-MEL-28): > 100 µM (inactive)
GI50 (KM12): > 100 µM (inactive)
GI50 (RXF 631): > 100 µM (inactive)
GI50 (HOP-62): > 10 µM (inactive)
GI50 (MOLT-4): > 100 µM (inactive)
GI50 (786-0): > 100 µM (inactive)
GI50 (Malme-3M): > 100 µM (inactive)
GI50 (SW-620): > 100 µM (inactive)
GI50 (SK-MEL-5): > 100 µM (inactive)
GI50 (DMS-273): > 100 µM (inactive)
GI50 (UACC-62): > 10 µM (inactive)
GI50 (NCI-H460): > 100 µM (inactive)
GI50 (SF-539): > 100 µM (inactive)
GI50 (HCT-15): > 100 µM
GI50 (U-251): > 100 µM (inactive)
GI50 (UO-31): > 100 µM (inactive)
GI50 (IGROV-1): > 100 µM (inactive)
GI50 (XF498): > 100 µM (inactive)
GI50 (SK-MEL-2): > 100 µM (inactive)
GI50 (SR): > 100 µM (inactive)
GI50 (HOP-92): > 100 µM (inactive)
GI50 (OVCAR-4): > 100 µM (inactive)
GI50 (UACC-257): > 100 µM (inactive)
GI50 (OVCAR-3): > 10 µM (inactive)
GI50 (NCI-H23): > 100 µM (inactive)
GI50 (SN12C): > 100 µM (inactive)
GI50 (M19-MEL): > 100 µM (inactive)
GI50 (EKVX): > 100 µM (inactive)
GI50 (SNB-75): 71.8 µM (inactive)
GI50 (SK-OV-3): > 100 µM (inactive)
GI50 (CCRF-CEM): > 100 µM (inactive)
GI50 (RPMI-8226): > 100 µM (inactive)
GI50 (DLD-1): > 100 µM (inactive)
GI50 (HCC 2998): > 100 µM (inactive)
GI50 (HCT-116): > 100 µM (inactive)
GI50 (ACHN): > 100 µM (inactive)
GI50 (LXFL 529): > 100 µM (inactive)
GI50 (SF-295): > 100 µM (inactive)
GI50 (HL-60): > 100 µM (inactive)
